Measured values: publication PMC11714206, “Massively Parallel Screening of Toll/Interleukin‐1 Receptor (TIR)‐Derived Peptides Reveals Multiple Toll‐Like Receptors (TLRs)‐Targeting Immunomodulatory Peptides” (Advanced Science, 2024)
Values belong to the sequence of their own block, whether it stands above or below them.

Target: T1, MAL^TIR (Homo sapiens, UniProt P58753)
T1 construct: MAL (residues 79–221); 6xHis; made in house; host or cells: E. coli BL21 (DE3)
Experiment: T‐Surf phage library (P8 and P3) selection against MAL^TIR, four rounds, NGS read counts
Type: binding
Conditions: for Population: 4th round of selection against MAL TIR, share of NGS reads; for P8_MAL Rank (after) / P8_MAL Rank (before): P8 library; for P3_MAL Rank (after) / P3_MAL Rank (before): P3 library
Protocol: T‐Surf libraries were screened against the immobilized TIR domains of two major human TLR adaptor proteins, MAL^TIR and MyD88^TIR, allowing cross‐species selection of TIR‐binding motifs with 190 946 TIR‐derived peptides in a single binding assay (Scheme 1). Enriched phage pools from the fourth round of selection were analyzed using NGS after barcoding the peptide‐coding regions of the phage pools.
Phage display screening was performed by coating two wells of a 96‐well plate (Maxisorp, Thermo Fisher Scientific) with 100 µL of 5 µg mL^−1 TIR domains overnight; then, the coated wells were blocked with 200 µL of blocking buffer (0.2% BSA in PBS) and set aside for 1 h at 4 °C with gentle shaking. Next, 100 µL of the phage library was added to the wells and incubated for 1 h at room temperature (RT; 20 – 22 °C) with gentle shaking. The plate was washed four times with PBS containing 0.5% Tween‐20; the bound phages were eluted by adding 100 µL of 100 mM HCl to each well. The elute was neutralized with 10 µL of 1.0 M Tris‐HCl (pH 11.0). E. coli TG1 cells were grown to the log phase (A600 = ≈0.6), and 1 mL of the culture was incubated with 100 µL of the eluted phages for 30 min at 37 °C, with shaking at 200 rpm. Next, 1 µL of M13KO7 helper phages was added, followed by incubation for 45 min at 37 °C, with shaking. Subsequently, the cells were transferred to 25 mL of 2× yeast extract tryptone/carbenicillin/kanamycin medium and incubated overnight at 37 °C with shaking at 200 rpm. The amplified phages were precipitated with 20% PEG‐8000/2.5 M NaCl to be used for the next round of selection.
The naïve T‐Surf libraries in P8 and P3 and the enriched phage pools after four rounds were barcoded for NGS as previously described.^[ [59] ^] Briefly, 5 µL of the phage pool was used as a template for 20 cycles of a 50 µL PCR reaction using […] each of forward and reverse barcoded primers and PrimeSTAR Max DNA Polymerase. The PCR products were purified using Expin Gel SV (GeneAll). The NGS samples were quantified using qPCR, following the qPCR Quantification Protocol Guide (KAPA Library Quantification kits for Illumina Sequencing Platform), and qualified using the TapeStation High Sensitivity D1000 ScreenTape (Agilent Technologies). The indexed libraries were further sequenced by Macrogen (Seoul, Republic of Korea) using the NovaSeq platform (Illumina) with 100 bp paired‐end reads. The reads were demultiplexed by barcodes and filtered for an average Phred quality score of at least 30, followed by trimming the flanking consensus sequences using Cutadapt (version 2.3). Peptide sequence populations were analyzed according to the read counts.

[1] = P8_MAL: rank by count after grouping
[2] = P8_MAL: rank by count before grouping
[3] = P8_MAL pool: P8 T-Surf phage library
[4] = selection against MAL TIR, rank by count after grouping
[5] = selection against MAL TIR, rank by count before grouping
[6] = selection against MAL, rank by count after grouping
[7] = selection against MAL, rank by count before grouping
[8] = selection against MAL, rank after grouping
[9] = selection against MAL, rank before grouping
[10] = 4R selection against MAL, rank after grouping
[11] = 4R selection against MAL, rank before grouping
[12] = P3_MAL: rank by count after grouping
[13] = P3_MAL: rank by count before grouping

T1 sequence (P58753 79-221): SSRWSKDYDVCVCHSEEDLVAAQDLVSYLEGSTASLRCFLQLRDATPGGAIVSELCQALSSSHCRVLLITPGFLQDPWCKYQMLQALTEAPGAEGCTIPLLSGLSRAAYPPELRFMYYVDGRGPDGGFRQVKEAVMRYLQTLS

Sequence: AFLYTFLINLTPPTEY
Rank (after) [1]: 401 | Rank (before) [2]: 1858

Sequence: AFLYTFLINRTHPTNF
Population [3]: 0.0034%

Sequence: AFLYTFLISLTHPTNF
Population [3]: 0.00402%

Sequence: AFLYTFLLNLTHPTHF
Rank (after) [1]: 162 | Rank (before) [2]: 1829

Sequence: AFLYTFLLNLTHQPTF
P8_MAL Rank (after) [8]: 485 | P8_MAL Rank (before) [9]: 1831

Sequence: AFLYTFLNNLIHPTTF
Rank (after) [1]: 145 | Rank (before) [2]: 1868

Sequence: AFLYTFLNNLTHPTKF
Rank (after) [1]: 94 | Rank (before) [2]: 1870

Sequence: AFLYTFLNNLTHTTNI
P8_MAL Rank (after) [8]: 536 | P8_MAL Rank (before) [9]: 1872

Sequence: AFLYTFLVNLTHPTMF
Rank (after) [1]: 468 | Rank (before) [2]: 1823

Sequence: AFLYTFPINLTHPTNF
Population [3]: 0.0034%

Sequence: AFLYTLLINLTHPTNF
Population [3]: 0.00432%

Sequence: AFLYTVLINLTHTTYF
P8_MAL Rank (after) [8]: 517 | P8_MAL Rank (before) [9]: 1886

Sequence: AFRYTFLIILTDPTNF
P8_MAL Rank (after) [10]: 599 | P8_MAL Rank (before) [11]: 1916

Sequence: AFTGHLHRYLVQRGV
Rank (after) [12]: 121 | Rank (before) [13]: 408

Sequence: AILYTFLINLTLPANF
P8_MAL Rank (after) [6]: 682 | P8_MAL Rank (before) [7]: 1576

Sequence: ALFWAQLKCVMGNPAM
P8_MAL Rank (after) [6]: 705 | P8_MAL Rank (before) [7]: 1932

Sequence: ALHNAFWDRLWTKLAP
P3_MAL Rank (after) [8]: 544 | P3_MAL Rank (before) [9]: 1842

Sequence: ALLYTFLIHLTHPTNS
P8_MAL Rank (after) [10]: 594 | P8_MAL Rank (before) [11]: 1929

Sequence: ALQYTILINLTNPTNF
P8_MAL Rank (after) [10]: 665 | P8_MAL Rank (before) [11]: 1962

Sequence: ARFKDMIINKWRTALT
P8_MAL Rank (after) [4]: 195 | P8_MAL Rank (before) [5]: 869

Sequence: ASLYTFLINLTHPTNF
Population [3]: 0.0034%

Sequence: AVLYTFLINLTHPTKF
Rank (after) [1]: 460 | Rank (before) [2]: 1954

Sequence: AVLYTFLINLTHPTNF
Population [3]: 0.00402%

Sequence: AWFRESLSRRLKGLLT
P3_MAL Rank (after) [6]: 708 | P3_MAL Rank (before) [7]: 1810

Sequence: AYANFRQGLLRLPELLR
P8_MAL Rank (after) [4]: 278 | P8_MAL Rank (before) [5]: 1946

Sequence: AYLNTFLINLTHPTNF
Rank (after) [1]: 149 | Rank (before) [2]: 1951

Sequence: CFYQRLVSLILHDTKV
P8_MAL Rank (after) [4]: 256 | P8_MAL Rank (before) [5]: 1108

Sequence: CLLKWKEALHQFHSGV
Rank (after) [12]: 447 | Rank (before) [13]: 1216

Sequence: CRFRQGLWRLLELSKK
P3_MAL Rank (after) [10]: 611 | P3_MAL Rank (before) [11]: 1323

Sequence: DAEDMFWTQLREALDA
P8_MAL Rank (after) [10]: 602 | P8_MAL Rank (before) [11]: 1987

Sequence: DFLNWFIALKSTVLET
P8_MAL Rank (after) [10]: 598 | P8_MAL Rank (before) [11]: 1976

Sequence: DFLSHLIEAFSRMHIN
P8_MAL Rank (after) [8]: 504 | P8_MAL Rank (before) [9]: 1972

Results, then the sequence that gave them:

Population [3]: 0.0034%
Sequence: AFLYTFLINLTRPTNF

Rank (after) [1]: 147 | Rank (before) [2]: 1837
Sequence: AFLYTFLINLTRQTNF

Population [3]: 0.00309%
Sequence: AFLYTFLINPTHPTNF

P8_MAL Rank (after) [4]: 255 | P8_MAL Rank (before) [5]: 1859
Sequence: AFLYTFLINPTHPTNS

Rank (after) [1]: 422 | Rank (before) [2]: 1874
Sequence: AFLYTFLKNLMRKPTF

P8_MAL Rank (after) [6]: 709 | P8_MAL Rank (before) [7]: 1873
Sequence: AFLYTFLKNLPHPTNI

Rank (after) [1]: 97 | Rank (before) [2]: 1875
Sequence: AFLYTFLKNLTHPTTF

Rank (after) [1]: 410 | Rank (before) [2]: 1876
Sequence: AFLYTFLKNLTHTPTF

P8_MAL Rank (after) [4]: 223 | P8_MAL Rank (before) [5]: 1830
Sequence: AFLYTFLLNLTHPTNL

Population [3]: 0.00309%
Sequence: AFLYTFLNNLTHPTNF

P8_MAL Rank (after) [4]: 209 | P8_MAL Rank (before) [5]: 1867
Sequence: AFLYTFLNTLTHPTNF

Rank (after) [1]: 134 | Rank (before) [2]: 1827
Sequence: AFLYTFLVNLTHPPNF

Rank (after) [1]: 126 | Rank (before) [2]: 1889
Sequence: AFLYTFMINLTHPTTF

P8_MAL Rank (after) [8]: 556 | P8_MAL Rank (before) [9]: 1888
Sequence: AFLYTLLNNVLRNPTI

P8_MAL Rank (after) [6]: 681 | P8_MAL Rank (before) [7]: 1923
Sequence: AFMYTFLINLTHPNNF

P8_MAL Rank (after) [10]: 611 | P8_MAL Rank (before) [11]: 1918
Sequence: AFPDTFLIKLPHPTNV

Rank (after) [1]: 125 | Rank (before) [2]: 1920
Sequence: AFQYTFLFNLTHPTNF

Rank (after) [12]: 467 | Rank (before) [13]: 1806
Sequence: AFSNNEYKCVETALMN

P8_MAL Rank (after) [10]: 641 | P8_MAL Rank (before) [11]: 1790
Sequence: AFYGPLLSLILRDTKM

P8_MAL Rank (after) [6]: 686 | P8_MAL Rank (before) [7]: 1786
Sequence: AFYWAQLKIVLGNPTM

P8_MAL Rank (after) [8]: 492 | P8_MAL Rank (before) [9]: 1785
Sequence: AFYWAQLNSVLRDTTM

P8_MAL Rank (after) [4]: 271 | P8_MAL Rank (before) [5]: 1926
Sequence: ALCWAQLKIVLANLPI

Rank (after) [1]: 435 | Rank (before) [2]: 1924
Sequence: ALFWEQLRTVLGKLTM

Rank (after) [1]: 448 | Rank (before) [2]: 1959
Sequence: ALLNNFLIKLTHPSII

P8_MAL Rank (after) [8]: 522 | P8_MAL Rank (before) [9]: 1957
Sequence: ALLYPFLINLTHPTHF

Population [3]: 0.0034%
Sequence: ALLYTFLINLTHPTNF

P8_MAL Rank (after) [8]: 503 | P8_MAL Rank (before) [9]: 1961
Sequence: ALPYTFLINLTHPTTF

P3_MAL Rank (after) [8]: 513 | P3_MAL Rank (before) [9]: 1847
Sequence: ARFKDMIINKWRTALTQAAN

Population (P3_MAL pool: P3 T-Surf phage library): 0.00376%
Sequence: ARLPAICIVIWCSVAX

Rank (after) [1]: 462 | Rank (before) [2]: 1955
Sequence: AVRYTILINLTHTTNF

Rank (after) [1]: 472 | Rank (before) [2]: 1943
Sequence: AYAYSRLVLLPLLELS

Rank (after) [1]: 445 | Rank (before) [2]: 1109
Sequence: CFLFTVRSAIYAMNPA

P3_MAL Rank (after) [10]: 637 | P3_MAL Rank (before) [11]: 1215
Sequence: CFLQNLCYALTYRPAT

P8_MAL Rank (after) [4]: 284 | P8_MAL Rank (before) [5]: 1106
Sequence: CFYEGQLFLALADKSI

P8_MAL Rank (after) [4]: 205 | P8_MAL Rank (before) [5]: 1107
Sequence: CFYERLVNLILRDTKV

P3_MAL Rank (after) [8]: 568 | P3_MAL Rank (before) [9]: 1321
Sequence: CVYRPSASLSGAAWR

P8_MAL Rank (after) [10]: 617 | P8_MAL Rank (before) [11]: 1988
Sequence: DDAVWVYEHLVKFLEG

P8_MAL Rank (after) [8]: 532 | P8_MAL Rank (before) [9]: 1981
Sequence: DFSHFWLFEAGGDAAI
